Consider six compounds from US20230000773A1, “NOVEL HEADGROUP LIPID COMPOUNDS AND COMPOSITIONS FOR INTRACELLULAR DELIVERY OF THERAPEUTIC AGENTS” (ModernaTX, Inc., priority 2019, published 2023).

The nature of data set [1]: Size and polydispersity index of nanoparticles comprising compounds of the disclosure. The conditions noted are these: compound:DSPC:cholesterol:PEG 2 50:10:38:2 mol %. The data set is classed as physicochemical. The source says:
Lipid nanoparticles (e.g., empty LNPs or loaded LNPs) may be characterized by a variety of methods. For example, microscopy (e.g., transmission electron microscopy or scanning electron microscopy) may be used to examine the morphology and size distribution of a nanoparticle composition. Dynamic light scattering or potentiometry (e.g., potentiometric titrations) may be used to measure zeta potentials. Dynamic light scattering may also be utilized to determine particle sizes. Instruments such as the Zetasizer Nano ZS (Malvern Instruments Ltd, Malvern, Worcestershire, UK) may also be used to measure multiple characteristics of a nanoparticle composition, such as particle size, polydispersity index, and zeta potential.
(§1) Nanoparticle compositions including a therapeutic and/or prophylactic can be optimized according to the selection of a compound according to Formula (I), (I-1), (A), (A-1), (A-1a), or (A-1b), the selection of additional lipids, the amount of each lipid in the lipid component, and the wt:wt ratio of the lipid component to the therapeutic and/or prophylactic. Nanoparticle compositions including DSPC as a phospholipid, cholesterol as a structural lipid, PEG 2 as a PEG lipid, and a compound according to Formula (I), (I-1), (A), (A-1), (A-1a), or (A-1b) were prepared. The ratios of the lipids were 50:10:38:2 mol % for the lipid according to Formula (I), (I-1), (A), (A-1), (A-1a), or (A-1b):DSPC:cholesterol:PEG 2. […]

A short description of data set [2]: Encapsulation efficiency (% EE), ribogreen. The conditions noted are these: nanoparticles, compound:DSPC:cholesterol:PEG 2 50:10:38:2 mol %. Type of data set: physicochemical.
Text: (§2) The efficiency of encapsulation of a therapeutic and/or prophylactic describes the amount of therapeutic and/or prophylactic that is encapsulated or otherwise associated with a lipid nanoparticle (e.g., an empty LNP or a loaded LNP) after preparation, relative to the initial amount provided. The encapsulation efficiency is desirably high (e.g., close to 100%). The encapsulation efficiency may be measured, for example, by comparing the amount of therapeutic and/or prophylactic in a solution containing the lipid nanoparticle (e.g., an empty LNP or a loaded LNP) before and after breaking up the lipid nanoparticle (e.g., an empty LNP or a loaded LNP) with one or more organic solvents or detergents. Fluorescence may be used to measure the amount of free therapeutic and/or prophylactic (e.g., RNA) in a solution.
as §1

The nature of data set [3]: Encapsulation efficiency (% EE), ribostar. The data set is classed as physicochemical. The conditions noted are these: nanoparticles, compound:DSPC:cholesterol:PEG 2 50:10:38:2 mol %.
Text: as §2, with “solution. For the lipid nanoparticles (e.g., empty LNPs or loaded LNPs) described herein, the encapsulation efficiency of a therapeutic and/or prophylactic may be at least 50%, for example 50%, 55%, 60%, 65%, 70%, 75%, 80%, 85%, 90%, 91%, 92%, 93%, 94%, 95%, 96%, 97%, 98%, 99%, or 100%. In some embodiments, the encapsulation efficiency may be at least 80%. In certain embodiments, the encapsulation efficiency may be at least 90%. In some embodiments, the encapsulation efficiency of the therapeutic and/or prophylactic agent is between 80% and 100%.” for “solution.”
Nanoparticle compositions including a therapeutic and/or prophylactic can be optimized according to the selection of a compound according to Formula (I), (I-1), (A), (A-1), (A-1a), or (A-1b), the selection of additional lipids, the amount of each lipid in the lipid component, and the wt:wt ratio of the lipid component to the therapeutic and/or prophylactic. Nanoparticle compositions including DSPC as a phospholipid, cholesterol as a structural lipid, PEG 2 as a PEG lipid, and a compound according to Formula (I), (I-1), (A), (A-1), (A-1a), or (A-1b) were prepared. The ratios of the lipids were 50:10:38:2 mol % for the lipid according to Formula (I), (I-1), (A), (A-1), (A-1a), or (A-1b):DSPC:cholesterol:PEG 2. Tables 2a, 2b, and 3-5 summarize the characteristics of the formulations.
Table 4 summarizes the surface hydrophobicity of nanoparticles comprising compounds of the disclosure as determined by Generalized Polarization by Laurdan (GPL). Laurdan, a fluorescent aminonaphthalene ketone lipid, was post-inserted into the nanoparticle surface and the fluorescence spectrum of Laurdan was collected to determine the normalized Generalized Polarization (N-GP). Higher N-GP indicates a less polar surface.

Data set [4] in a line: Apparent LNP pKa by 2-(p-toluidino)-6-napthalene sulfonic acid (TNS) assay. The data set is classed as physicochemical. As to conditions: pH at half of maximum fluorescence.
Data set [5] is described as follows: Surface hydrophobicity by Generalized Polarization by Laurdan (GPL). Type of data set: physicochemical. The conditions noted are these: normalized Generalized Polarization by Laurdan; higher N-GP = less polar surface. An outline of the steps:
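LNPs contained ionizable lipid:DSPC:cholesterol:PEG lipid at 50:10:38:2 mol %. Laurdan was post-inserted into the particle surface, and its fluorescence spectrum gave normalized generalized polarization (N-GP); higher N-GP means a less polar surface.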

Data set [6] can be described thus: Heparin-sepharose binding of nanoparticles.
Data set [7] concerns hEPO mRNA. Kind of data set: hEPO expression in CD1-mice after intravenous administration of nanoparticles. Type of data set: in vivo. The conditions noted are these: 6 h after intravenous administration, mRNA dose 0.5 mg/kg, N:P 3.4, compound:DSPC:cholesterol:PEG 2 50:10:38:2. Here is the method:
The expression of hEPO mRNA in CD1-mice was measured 6 h after intravenous administration of nanoparticles comprising a compound of the disclosure, DSPC, cholesterol, and PEG 2 in a ratio of 50:10:38:2. […] Each composition was dosed to 8 animals at an mRNA dose of 0.5 mg/kg.

Data set [8] concerns serum protein ApoE. As to the kind of experiment: ApoE binding affinity of nanoparticles (bead binding, flow cytometry). As to the method: The ApoE binding affinity, i.e., the affinity of binding between nanoparticles comprising compounds of the disclosure and the serum protein ApoE, was determined by binding the nanoparticles to beads, then incubating them with known quantities of […]. The quantity of protein bound to the nanoparticle was then determined by flow cytometry.
A general note: In flow cytometry, cells or beads pass a laser one at a time.

Data set [9] deals with mRNA. Kind of data set: mRNA integrity in nanoparticles by RP-IP HPLC (UV 260 nm). The data set is classed as physicochemical. As to the method: Integrity of mRNA comprised in nanoparticles of the disclosure, i.e., the percentages of intact mRNA, mRNA adducts, and mRNA hydrolysis products, […] (Reverse-Phase Ion-Pairing HPLC) using UV detection at 260 nm. Total purity and impurities are calculated as percent peak area.

The mark [10] stands for this setting: mRNA integrity after 2 weeks at 25° C., percent peak area.
The mark [11] stands for this setting: mRNA integrity at t = 0, percent peak area.

For `CCCCCCCCC(CC)OC(=O)CCCCCCCN(CCCCCCCC(=O)OC(CCCCCCCC)CCCCCCCC)CCCNc1ncccc1NC` (stereo not drawn) [Compound 34, Heptadecan-9-yl 8-((3-((3-(methylamino)pyridin-2-yl)amino)propyl)(8-oxo-8-(undecan-3-yloxy)octyl)amino)octanoate], in data set [1], the PDI amounted to 0.211 and the “Size (nm)” value was determined as 108.2 nm. Further, in data set [2], the “% EE (ribogreen)” value is listed as 75.4%. The “% EE (ribostar)” value in [3] turned out to be 41.6%. In addition, in data set [4], the “LogIC50 (pKa)” value was 6.87. For the same compound, the “Average N-GP” value in [5] is 1.001. Besides, in data set [6], the “Relative % Area Bound by LNP” value worked out at 2.90%. Moreover, the “Avg. [hEPO] mIU/mL” value in data set [7] amounted to 8.06E+05 mIU/mL. Further, in data set [8], the “Median Fluorescence Intensity, PE” value came to 3133. For the same compound, in [9] (setting [10]), the Adduct was 7.9%, the “Hydrolysis Product” value is listed as 51.4% and the Intact is recorded as 40.8%. In [9] (setting [11]), the Adduct was 3.8%, the “Hydrolysis Product” value worked out at 36.4% and the Intact worked out at 59.8%.
Turning to `CCCCCCCCC(CC)OC(=O)CCCCCCCN(CCCCCCCC(=O)OC(CCCCCCCC)CCCCCCCC)CCCNC(=O)C1(C)CC1` (stereo not drawn) [Compound 60, Heptadecan-9-yl 8-((3-(1-methylcyclopropane-1-carboxamido)propyl)(8-oxo-8-(undecan-3-yloxy)octyl)amino)octanoate], in data set [1], the PDI was found to be 0.192 and the “Size (nm)” value stood at 90.8 nm. In addition, the “% EE (ribogreen)” value in data set [2] was found to be 41.5%. Besides, in [3], the “% EE (ribostar)” value is 20.5%. Also, the “LogIC50 (pKa)” value in data set [4] stood at 6.69. In [5], the “Average N-GP” value came out at 1.055. Further, the “Relative % Area Bound by LNP” value in [6] is recorded as 5.65%. Moreover, the “Avg. [hEPO] mIU/mL” value in [7] was determined as 7.34E+05 mIU/mL. In addition, in data set [8], the “Median Fluorescence Intensity, PE” value came out at 41093. In addition, in data set [9] (setting [10]), the Adduct was 8.5%, the “Hydrolysis Product” value was 77.2% and the Intact came out at 14.3%. In [9] (setting [11]), the Adduct amounted to 6.0%, the “Hydrolysis Product” value is listed as 51.8% and the Intact was found to be 42.2%.
For the compound `CCCCCCCCC(CC)OC(=O)CCCCCCCN(CCCCCCCC(=O)OC(CCCCCCCC)CCCCCCCC)CCCNS(=O)(=O)CC` (stereo not drawn) [Compound 66, Heptadecan-9-yl 8-((3-(ethylsulfonamido)propyl)(8-oxo-8-(undecan-3-yloxy)octyl)amino)octanoate], in [1], the PDI is given as 0.125 and the “Size (nm)” value was 70.1 nm. For the same compound, the “% EE (ribogreen)” value in [2] amounted to 91.8%. For the same compound, in data set [3], the “% EE (ribostar)” value was 59.1%. Further, in data set [4], the “LogIC50 (pKa)” value was 6.64. Moreover, the “Average N-GP” value in data set [5] is reported as 0.837. Also, the “Relative % Area Bound by LNP” value in data set [6] is 3.54%. Also, the “Avg. [hEPO] mIU/mL” value in data set [7] came to 1.57E+06 mIU/mL. Moreover, the “Median Fluorescence Intensity, PE” value in data set [8] was found to be 112648. For the same compound, in data set [9] (setting [10]), the Adduct is 27.2%, the “Hydrolysis Product” value came out at 32.9% and the Intact came to 39.9%. In data set [9] (setting [11]), the Adduct is on record as 13.1%, the “Hydrolysis Product” value turned out to be 32.9% and the Intact amounted to 54.0%.
Consider `CCCCCCCCC(CC)OC(=O)CCCCCCCN(CCCCCCCC(=O)OC(CCCCCCCC)CCCCCCCC)CCCNC1=NC(=O)N(C)C1=O` (stereo not drawn) [Compound 9, Heptadecan-9-yl 8-((3-((1-methyl-2,5-dioxo-2,5-dihydro-1H-imidazol-4-yl)amino)propyl)(8-oxo-8-(undecan-3-yloxy)octyl)amino)octanoate], for which, in data set [1], the PDI is 0.154 and the “Size (nm)” value was found to be 77.1 nm. For the same compound, in [2], the “% EE (ribogreen)” value turned out to be 92.9%. Further, in data set [3], the “% EE (ribostar)” value is recorded as 68.9%. Also, the “Relative % Area Bound by LNP” value in [6] amounted to 0%. The “Avg. [hEPO] mIU/mL” value in data set [7] is recorded as 5.32E+05 mIU/mL. Further, the “Median Fluorescence Intensity, PE” value in data set [8] came out at 56008.
For the compound `CCCCCCCCC(CC)OC(=O)CCCCCCCN(CCCCCCCC(=O)OC(CCCCCCCC)CCCCCCCC)CCCNS(=O)(=O)Cc1ccon1` (stereo not drawn) [Compound 71, Heptadecan-9-yl 8-((3-((isoxazol-3-ylmethyl)sulfonamido)propyl)(8-oxo-8-(undecan-3-yloxy)octyl)amino)octanoate], in data set [1], the PDI was determined as 0.109 and the “Size (nm)” value worked out at 64.7 nm. Also, in data set [2], the “% EE (ribogreen)” value stood at 90.8%. In data set [3], the “% EE (ribostar)” value is listed as 50.7%. Also, the “LogIC50 (pKa)” value in [4] was 6.54. Besides, in [5], the “Average N-GP” value amounted to 0.874. Moreover, in [6], the “Relative % Area Bound by LNP” value amounted to 0%. Moreover, the “Avg. [hEPO] mIU/mL” value in data set [7] turned out to be 1.50E+06 mIU/mL. In addition, in data set [8], the “Median Fluorescence Intensity, PE” value is given as 147047. Further, in data set [9] (setting [10]), the Adduct was 20.2%, the “Hydrolysis Product” value was found to be 35.9% and the Intact stood at 43.9%. In addition, in data set [9] (setting [11]), the Adduct worked out at 8.7%, the “Hydrolysis Product” value is given as 30.8% and the Intact is recorded as 60.6%.
For `CCCCCCCCC(CC)OC(=O)CCCCCCCN(CCCCCCCC(=O)OC(CCCCCCCC)CCCCCCCC)CCCNc1n[s+]([O-])nc1NC` (stereo not drawn) [Compound 1, Heptadecan-9-yl 8-((3-((4-(methylamino)-1-oxido-1,2,5-thiadiazol-3-yl)amino)propyl)(8-oxo-8-(undecan-3-yloxy)octyl)amino)octanoate], in [1], the PDI was found to be 0.131 and the “Size (nm)” value was 67.6 nm. Moreover, the “% EE (ribogreen)” value in data set [2] was 97.5%. The “% EE (ribostar)” value in data set [3] is recorded as 61.4%. For the same compound, in data set [4], the “LogIC50 (pKa)” value is given as 6.94. Further, in [6], the “Relative % Area Bound by LNP” value was found to be 0%. Further, the “Avg. [hEPO] mIU/mL” value in [7] was found to be 6.38E+05 mIU/mL. Besides, the “Median Fluorescence Intensity, PE” value in data set [8] stood at 182846.
